Data reported in US10323000B2, “Indole derivatives and their use in neurodegenerative diseases” (priority 2014, dated 2019).
Where two headings read alike, the source gives them in different places.

Key:
human P2X7 receptor = human P2X7 receptor (Homo sapiens (Human), UniProt Q99572); assay: Pore permeation assay (YO PRO dye uptake); type: cell-based
[1] = biological target: P2X7 (IL-1β release from THP-1 cells) (Homo sapiens (Human), UniProt Q99572); assay: IL-1β release assay; type: cell-based
Sequence of P2X7 (IL-1β release from THP-1 cells) (Q99572 whole entry): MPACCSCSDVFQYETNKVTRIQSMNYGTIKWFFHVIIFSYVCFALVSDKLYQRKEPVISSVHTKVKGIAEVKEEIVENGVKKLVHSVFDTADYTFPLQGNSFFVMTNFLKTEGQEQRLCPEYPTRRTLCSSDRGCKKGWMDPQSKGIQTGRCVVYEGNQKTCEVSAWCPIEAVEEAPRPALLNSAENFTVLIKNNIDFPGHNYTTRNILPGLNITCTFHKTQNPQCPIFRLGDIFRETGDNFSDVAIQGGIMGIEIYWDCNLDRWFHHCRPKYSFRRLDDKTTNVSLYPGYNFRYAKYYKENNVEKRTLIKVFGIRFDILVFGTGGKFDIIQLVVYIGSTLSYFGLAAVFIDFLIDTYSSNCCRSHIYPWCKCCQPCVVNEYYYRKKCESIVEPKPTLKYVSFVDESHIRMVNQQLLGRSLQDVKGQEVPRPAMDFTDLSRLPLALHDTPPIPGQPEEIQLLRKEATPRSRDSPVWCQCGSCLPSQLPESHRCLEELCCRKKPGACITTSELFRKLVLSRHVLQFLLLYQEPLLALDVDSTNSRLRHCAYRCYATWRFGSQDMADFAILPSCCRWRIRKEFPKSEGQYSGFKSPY
Summary of the method: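 THP-1 cells were differentiated with PMA 0.5 μM and primed 4 h with LPS 10 ng/ml. They were then pre-incubated 20 min with compound at 37° C and stimulated 30 min with BzATP 0.8 mM. Mature IL-1β released into the supernatant was quantified by sandwich ELISA.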

[2] = HEK293 transfected with human P2X7, BzATP 10 uM, YO PRO dye uptake, read-out: hP2X7 IC50
[3] = THP-1 cells, LPS primed, 0.8 mM BzATP, mature IL-1β by sandwich ELISA, read-out: hTHP-1/IL-ib IC50

Sequence of human P2X7 receptor (Q99572 whole entry): as above

Compound | IC50 (human P2X7 receptor) [nM] | IC50 [1] [nM] | IC50 (human P2X7 receptor; [2]) [nM] | IC50 [1, 3] [nM]
O=C(NCC1CCC(F)(F)CC1)c1cn(C2COC2)c2cccc(Cl)c12 [Compound 94, 4-chloro-N-((4,4-difluorocyclohexyl)methyl)-1-(oxetan-3-yl)-1H-indole-3-carboxamide] | 10 to 100 | 10 to 100 | – | –
CC1CC(F)(F)CC(O)(CNC(=O)c2cn(CC(F)(F)F)c3cccc(Cl)c23)C1 (stereo not shown) [Compound 1, 4-chloro-N-((3,3-difluoro-1-hydroxy-5-methylcyclohexyl)methyl)-1-(2,2,2-trifluoroethyl)-1H-indole-3-carboxamide] | – | – | 101 to 500 | > 1000
COCCn1cc(C(=O)NCC2CCC(F)(F)CC2)c2c(C(F)(F)F)cccc21 [Compound 199] | 101 to 500 | 101 to 500 | – | –
CN1CC(n2cc(C(=O)NCC3(O)CCC(F)(F)CC3)c3c(Cl)cccc32)C1 [Compound 118, 4-chloro-N-((4,4-difluoro-1-hydroxycyclohexyl)methyl)-1-(1-methylazetidin-3-yl)-1H-indole-3-carboxamide] | 500 to 999 | 10 to 100 | – | –
O=C(NCC1CCC(F)(F)CC1)c1cn(C[C@@H]2CCCO2)c2cccc(Cl)c12 [Compound 132, (S)-4-chloro-N-((4,4-difluorocyclohexyl)methyl)-1-((tetrahydrofuran-2-yl)methyl)-1H-indole-3-carboxamide] | 10 to 100 | 10 to 100 | – | –
O=C(NCCC1CCCC1)c1cn(C2CCOC2)c2cccc(Cl)c12 (stereo not shown) [Compound 108, 4-Chloro-1-(tetrahydro-furan-3-yl)-1H-indole-3-carboxylic acid (2-cyclopentyl-ethyl)-amide] | 10 to 100 | 101 to 500 | – | –
C[C@@H]1CCC[C@](O)(CNC(=O)c2cn(CC3CCCO3)c3cccc(Cl)c23)C1 (stereo partly drawn) [Compound 143, 4-chloro-N-(((1R,3R)-1-hydroxy-3-methylcyclohexyl)methyl)-1-((tetrahydrofuran-2-yl)methyl)-1H-indole-3-carboxamide] | 10 to 100 | 101 to 500 | – | –
CC(C)N1CC[C@H]1Cn1cc(C(=O)NCC2CCC(F)(F)CC2)c2c(Cl)cccc21 [Compound 191, (S)-4-chloro-N-((4,4-difluorocyclohexyl)methyl)-1-((1-isopropylazetidin-2-yl)methyl)-1H-indole-3-carboxamide] | 101 to 500 | – | – | > 1000
CN1CC(n2cc(C(=O)NCC3CCC(F)(F)CC3)c3c(Cl)cccc32)C1 [Compound 119, 4-chloro-N-((4,4-difluorocyclohexyl)methyl)-1-(1-methylazetidin-3-yl)-1H-indole-3-carboxamide] | 101 to 500 | 101 to 500 | – | –
O=C(NCC1CCC(F)(F)CC1)c1cn(CC2CCO2)c2cccc(Cl)c12 (stereo not shown) [Compound 116, 4-chloro-N-((4,4-difluorocyclohexyl)methyl)-1-(oxetan-2-ylmethyl)-1H-indole-3-carboxamide] | 10 to 100 | 10 to 100 | – | –
CC1(C)CCCC(O)(CNC(=O)c2cn(C3COC3)c3cccc(Cl)c23)C1 (stereo not shown) [Compound 64, 4-Chloro-1-oxetan-3-yl-1H-indole-3-carboxylic acid (1-hydroxy-3,3-dimethyl-cyclohexylmethyl)-amide] | 10 to 100 | 10 to 100 | – | –
O=C(NCC1CCC(F)(F)CC1)c1cn(CC(=O)N2CCCC2)c2cccc(Cl)c12 [Compound 185, 4-Chloro-1-(2-oxo-2-pyrrolidin-1-yl-ethyl)-1H-indole-3-carboxylic acid (4,4-difluoro-cyclohexylmethyl)-amide] | 10 to 100 | 10 to 100 | – | –
C[C@@H](NC(=O)c1cn(C2CCOC2)c2cccc(Cl)c12)C1C[C@H]2CC[C@@H]1C2 (stereo partly drawn) [Compound 109, 4-Chloro-1-(tetrahydro-furan-3-yl)-1H-indole-3-carboxylic acid ((1R,4S)-1-bicyclo[2.2.1]hept-2-yl-ethyl)-amide] | 101 to 500 | 500 to 999 | – | –
O=C(NCC1(O)CCC(F)(F)CC1)c1cn(C2COC2)c2cccc(Cl)c12 [Compound 92, 4-chloro-N-((4,4-difluoro-1-hydroxycyclohexyl)methyl)-1-(oxetan-3-yl)-1H-indole-3-carboxamide] | 10 to 100 | 101 to 500 | – | –
O=C(NCCCC(F)(F)F)c1cn(C2COC2)c2cccc(Cl)c12 [Compound 73, 4-Chloro-1-oxetan-3-yl-1H-indole-3-carboxylic acid (4,4,4-trifluoro-butyl)-amide] | 101 to 500 | 500 to 999 | – | –
O=C(NCC1CCC(F)(F)CC1)c1cn(CCO)c2cccc(C(F)(F)F)c12 [Compound 198, N-((4,4-difluorocyclohexyl)methyl)-1-(2-hydroxyethyl)-4-(trifluoromethyl)-1H-indole-3-carboxamide] | 101 to 500 | 10 to 100 | – | –
O=C(NCC1CCC(F)(F)CC1)c1cn(CC(=O)N2CCC2)c2cccc(Cl)c12 [Compound 163] | – | 10 to 100 | < 10 | –
COCCn1cc(C(=O)NCCc2ccc(Cl)cc2Cl)c2c(Cl)cccc21 [Compound 36] | 101 to 500 | – | – | > 1000
O=C(NCC1CCCC2(CC2)C1)c1cn(C2COC2)c2cccc(Cl)c12 (stereo not shown) [Compound 68, 4-chloro-1-(oxetan-3-yl)-N-(spiro[2.5]octan-5-ylmethyl)-1H-indole-3-carboxamide] | – | 10 to 100 | < 10 | –
COCCn1cc(C(=O)NCCc2ccccc2Cl)c2c(Cl)cccc21 [Compound 35, 4-Chloro-1-(2-methoxy-ethyl)-1H-indole-3-carboxylic acid [2-(2-chloro-phenyl)-ethyl]-amide] | 101 to 500 | 101 to 500 | – | –
CN1CCOCC1Cn1cc(C(=O)NCC2CCC(F)(F)CC2)c2c(Cl)cccc21 (stereo not shown) [Compound 184, 4-chloro-N-((4,4-difluorocyclohexyl)methyl)-1-((4-methylmorpholin-3-yl)methyl)-1H-indole-3-carboxamide] | 101 to 500 | 101 to 500 | – | –
COCCn1cc(C(=O)NCC2(OC)CCC(F)(F)CC2)c2c(Cl)cccc21 [Compound 17, 4-Chloro-1-(2-methoxy-ethyl)-1H-indole-3-carboxylic acid (4,4-difluoro-1-methoxy-cyclohexylmethyl)-amide] | 10 to 100 | 101 to 500 | – | –
O=C(NCC1C[C@@H]2CC[C@H]1C2)c1cn(C2COC2)c2cccc(Cl)c12 (stereo partly drawn) [Compound 59, 4-Chloro-1-oxetan-3-yl-1H-indole-3-carboxylic acid ((1S,4R)-1-bicyclo[2.2.1]hept-2-ylmethyl)-amide] | 10 to 100 | 10 to 100 | – | –
O=C(NCCC1(O)CCCC1)c1cn(C2COC2)c2cccc(Cl)c12 [Compound 45, 4-chloro-N-(2-(1-hydroxycyclopentyl)ethyl)-1-(oxetan-3-yl)-1H-indole-3-carboxamide] | – | – | > 1000 | > 1000
CN1CCC[C@H]1Cn1cc(C(=O)NCC2(O)CCC(F)(F)CC2)c2c(Cl)cccc21 [Compound 169, (S)-4-chloro-N-((4,4-difluoro-1-hydroxycyclohexyl)methyl)-1-((1-methylpyrrolidin-2-yl)methyl)-1H-indole-3-carboxamide] | 10 to 100 | 10 to 100 | – | –
O=C(NCC1CCC(F)(F)CC1)c1cn(CC2COCCN2)c2cccc(Cl)c12 (stereo not shown) [Compound 164, 4-chloro-N-((4,4-difluorocyclohexyl)methyl)-1-(morpholin-3-ylmethyl)-1H-indole-3-carboxamide] | 101 to 500 | 10 to 100 | – | –
